Among the data in patent publication US9695171B2, “3,4-disubstituted-1 H-pyrrolo[2,3-b]pyridines and 4,5-disubstituted-7H-pyrrolo[2,3-c]pyridazines as LRRK2 inhibitors” (Pfizer Inc., priority 2013, dated 2017) are EC50 values, retold here.

T1 sequence (Q5S007 970-2527 limits assumed): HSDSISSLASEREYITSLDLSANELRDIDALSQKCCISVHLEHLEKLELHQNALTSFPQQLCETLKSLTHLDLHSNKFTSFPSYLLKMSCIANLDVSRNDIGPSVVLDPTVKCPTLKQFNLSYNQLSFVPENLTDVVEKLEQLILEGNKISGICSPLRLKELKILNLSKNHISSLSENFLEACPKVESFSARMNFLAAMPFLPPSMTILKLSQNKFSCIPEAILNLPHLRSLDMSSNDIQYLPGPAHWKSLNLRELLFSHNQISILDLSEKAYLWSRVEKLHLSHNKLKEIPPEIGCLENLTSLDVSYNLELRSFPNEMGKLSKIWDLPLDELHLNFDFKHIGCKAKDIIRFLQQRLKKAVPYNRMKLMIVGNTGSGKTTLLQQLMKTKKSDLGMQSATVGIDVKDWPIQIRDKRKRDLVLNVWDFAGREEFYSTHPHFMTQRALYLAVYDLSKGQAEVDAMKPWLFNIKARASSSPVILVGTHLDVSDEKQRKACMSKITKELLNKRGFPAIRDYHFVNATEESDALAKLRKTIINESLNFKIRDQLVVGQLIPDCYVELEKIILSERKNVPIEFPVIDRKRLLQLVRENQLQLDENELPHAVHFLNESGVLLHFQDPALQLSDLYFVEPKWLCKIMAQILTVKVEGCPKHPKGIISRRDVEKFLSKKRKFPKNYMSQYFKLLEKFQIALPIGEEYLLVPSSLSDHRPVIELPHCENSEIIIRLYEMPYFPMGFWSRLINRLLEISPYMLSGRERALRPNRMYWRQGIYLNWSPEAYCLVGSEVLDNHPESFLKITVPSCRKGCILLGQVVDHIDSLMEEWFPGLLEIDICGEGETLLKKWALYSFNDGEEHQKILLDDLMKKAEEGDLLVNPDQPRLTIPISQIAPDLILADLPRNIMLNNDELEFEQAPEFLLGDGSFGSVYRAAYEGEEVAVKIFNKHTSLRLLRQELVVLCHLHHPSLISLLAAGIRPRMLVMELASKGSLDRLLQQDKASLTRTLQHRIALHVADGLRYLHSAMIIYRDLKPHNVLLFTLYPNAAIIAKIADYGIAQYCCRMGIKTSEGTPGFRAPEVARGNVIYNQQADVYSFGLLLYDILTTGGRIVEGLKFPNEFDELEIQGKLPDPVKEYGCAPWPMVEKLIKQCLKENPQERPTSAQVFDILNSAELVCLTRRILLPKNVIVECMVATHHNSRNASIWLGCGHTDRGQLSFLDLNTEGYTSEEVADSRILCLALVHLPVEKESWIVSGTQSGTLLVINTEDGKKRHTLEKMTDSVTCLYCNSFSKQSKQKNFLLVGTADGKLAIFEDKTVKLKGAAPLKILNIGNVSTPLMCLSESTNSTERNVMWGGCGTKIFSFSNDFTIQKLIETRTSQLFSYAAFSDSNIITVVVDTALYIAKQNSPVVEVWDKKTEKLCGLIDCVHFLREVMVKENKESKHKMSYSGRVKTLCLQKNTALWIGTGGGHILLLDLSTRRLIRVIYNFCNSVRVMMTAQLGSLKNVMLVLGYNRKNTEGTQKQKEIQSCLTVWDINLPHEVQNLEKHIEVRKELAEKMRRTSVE

This assay has as its target T1, GST-tagged truncated LRRK2 (Homo sapiens, UniProt Q5S007).
T1 construct: GST-tagged truncated LRRK2 from Invitrogen (Cat # PV4874); GST; purchased Invitrogen PV4874
As to the kind of experiment: LRRK2 kinase assay (Lantha Screen). To be noted: 1 mM ATP (head); a = geometric mean of >=4 determinations, b = single determination; read-out: LRRK2 LANTHA EC50 at 1 mM ATP; Geometric mean of 2-3 determinations unless otherwise indicated. Type of assay: biochemical. The procedure:
LRRK2 kinase activity was measured using Lantha Screen technology from Invitrogen. GST-tagged truncated LRRK2 from Invitrogen (Cat # PV4874) was incubated with a fluorescein-labeled peptide substrate based upon ezrin/radixin/moesin (ERM), also known as LRRKtide (Invitrogen cat # PR8976A), in the presence of a dose response of compound. Upon completion, the assay was stopped and detected with a terbium labeled anti-phospho-ERM antibody (Invitrogen, cat # PR8975A). […] The compound dose response was prepared by diluting compound to a top concentration of 3.16 mM in 100% DMSO and serial diluted by half-log in DMSO 11 times. Aliquots (3.5 μL) of the 100% DMSO dose response were mixed with 46.5 μL water then 1 μL of this mixture was added to the 3 μL substrate mix in the 384-well plate. The kinase reaction was started with 3 μL of a working solution of LRRK2 enzyme at a concentration of 4 μg/mL. […] The reaction was allowed to progress at room temperature for two hours and then stopped with the addition of 7 μL of detection buffer (20 mM Tris pH 7.6, 0.01% NP-40, 0.02% NaN3, 6 mM EDTA with 2 nM terbium labeled anti-phospho-ERM). After an incubation of 1 hour at room temperature, the plate was read on an Envision with an excitation wavelength of 340 nm and a reading emission at both 520 nm and 495 nm. The ratio of the 520 nm and 495 nm emission was used to analyze the data.
As a reminder, the EC50 is the concentration giving half of the maximal effect. Regarding `COC1CCCN(c2ccnc3[nH]cc(-c4cccc(C#N)c4)c23)C1` (stereo not shown) [Example 71, 3-[4-(3-methoxypiperidin-1-yl)-1H-pyrrolo[2,3-b]pyridin-3-yl]benzonitrile], the 50% effective concentration (EC50) was found to be 95.8 nM.

For `N#Cc1cccc(-c2c[nH]c3nccc(N4C[C@H]5C[C@@H](C4)O5)c23)c1` [Example 72, 3-[4-(6-oxa-3-azabicyclo[3.1.1]hept-3-yl)-1H-pyrrolo[2,3-b]pyridin-3-yl]benzonitrile], the EC50 was 68.3 nM. The value for `N#Cc1cccc(-c2c[nH]c3nccc(N4C[C@@H](F)[C@H](F)C4)c23)c1` [Example 73, 3-{4-[(3R,4R)-3,4-difluoropyrrolidin-1-yl]-1H-pyrrolo[2,3-b]pyridin-3-yl}benzonitrile] was 44.4 nM; that for `N#Cc1cccc(-c2c[nH]c3nccc(N4CCC(F)CC4)c23)c1` [Example 74, 3-[4-(4-fluoropiperidin-1-yl)-1H-pyrrolo[2,3-b]pyridin-3-yl]benzonitrile] was 39 nM.

`N#Cc1cccc(-c2c[nH]c3nccc(N4CC[C@@H](F)C4)c23)c1` [Example 75, 3-{4-[(3R)-3-fluoropyrrolidin-1-yl]-1H-pyrrolo[2,3-b]pyridin-3-yl}benzonitrile]: the EC50 was 38.7 nM. Consider `C[C@@H]1CN(c2ccnc3[nH]cc(-c4cccc(C#N)c4)c23)CCO1` [Example 76, 3-{4-[(2R)-2-methylmorpholin-4-yl]-1H-pyrrolo[2,3-b]pyridin-3-yl}benzonitrile], for which the EC50 is 30.6 nM. `N#Cc1cccc(-c2c[nH]c3nccc(N4CCCC4)c23)c1` [Example 77, 3-[4-(pyrrolidin-1-yl)-1H-pyrrolo[2,3-b]pyridin-3-yl]benzonitrile]: the EC50 came out at 14.1 nM.

On to `N#Cc1cccc(-c2c[nH]c3nccc(N4CC[C@H](F)C4)c23)c1` [Example 78, 3-{4-[(3S)-3-fluoropyrrolidin-1-yl]-1H-pyrrolo[2,3-b]pyridin-3-yl}benzonitrile], for which the EC50 came to 24 nM. In the case of `N#Cc1cccc(-c2c[nH]c3nccc(N4CCCC(F)(F)C4)c23)c1` [Example 79, 3-[4-(3,3-difluoropiperidin-1-yl)-1H-pyrrolo[2,3-b]pyridin-3-yl]benzonitrile], the concentration for a half-maximal effect (EC50) turned out to be 99.2 nM.

Turning to `C[C@H]1CN(c2ccnc3[nH]cc(-c4cccc(C#N)c4)c23)CCO1` [Example 80, 3-{4-[(2S)-2-methylmorpholin-4-yl]-1H-pyrrolo[2,3-b]pyridin-3-yl}benzonitrile], the EC50 stood at 10.5 nM.

`O=c1cc(-c2c[nH]c3nccc(N4CCOCC4)c23)cc[nH]1` [Example 81, 4-[4-(morpholin-4-yl)-1H-pyrrolo[2,3-b]pyridin-3-yl]pyridin-2(1H)-one]: the EC50 was determined as 11.1 nM.

`COC(=O)c1cnc2[nH]cc(-c3cccc(C#N)c3)c2c1N1CCOCC1` [Example 82, methyl 3-(3-cyanophenyl)-4-(morpholin-4-yl)-1H-pyrrolo[2,3-b]pyridine-5-carboxylate]: the EC50 was 12.3 nM. For the compound `N#CCc1cnc2[nH]cc(-c3cccc(C#N)c3)c2c1N1CCOCC1` [Example 83, 3-[5-(cyanomethyl)-4-(morpholin-4-yl)-1H-pyrrolo[2,3-b]pyridin-3-yl]benzonitrile], the EC50 was determined as 106 nM. With `COCc1cnc2[nH]cc(-c3cccc(C#N)c3)c2c1N1CCOCC1` [Example 84, 3-[5-(methoxymethyl)-4-(morpholin-4-yl)-1H-pyrrolo[2,3-b]pyridin-3-yl]benzonitrile], the EC50 is 63.4 nM. Take `Cn1cc(-c2c[nH]c3nccc(N4CCOCC4)c23)cc1C(N)=O` [Example 85, 1-methyl-4-[4-(morpholin-4-yl)-1H-pyrrolo[2,3-b]pyridin-3-yl]-1H-pyrrole-2-carboxamide]: the half-maximal effective concentration (EC50) came out at 21.7 nM. As for `N#Cc1cc(-c2c[nH]c3nccc(N4CCOCC4)c23)c[nH]1` [Example 86, 4-[4-(morpholin-4-yl)-1H-pyrrolo[2,3-b]pyridin-3-yl]-1H-pyrrole-2-carbonitrile], the EC50 was 2.75 nM. `Cc1[nH]c2nccc(N3CCOCC3)c2c1-c1cc(C#N)n(C)c1` [Example 87, 1-methyl-4-[2-methyl-4-(morpholin-4-yl)-1H-pyrrolo[2,3-b]pyridin-3-yl]-1H-pyrrole-2-carbonitrile]: the EC50 worked out at 5.46 nM.

Regarding `N#Cc1cccc(-c2c[nH]c3nccc(-c4ccncc4)c23)c1` [Example 88, 3-[4-(pyridin-4-yl)-1H-pyrrolo[2,3-b]pyridin-3-yl]benzonitrile], the EC50 amounted to 9.93 nM. Take `Cn1cc(-c2c[nH]c3nccc(-c4ccccc4)c23)cn1` [Example 89, 3-(1-methyl-1H-pyrazol-4-yl)-4-phenyl-1H-pyrrolo[2,3-b]pyridine]: the EC50 was 13.7 nM. The figure for `N#Cc1cccc(-c2c[nH]c3nncc(N4CCOCC4)c23)c1` [Example 90, 3-[4-(morpholin-4-yl)-7H-pyrrolo[2,3-c]pyridazin-5-yl]benzonitrile] is 42.2 nM; for `N#Cc1cccc(-c2c[nH]c3nccc(-c4cccc(C(=O)NC5CC5)c4)c23)c1` [Example 91, 3-[3-(3-cyanophenyl)-1H-pyrrolo[2,3-b]pyridin-4-yl]-N-cyclopropylbenzamide] it is 43.4 nM; for `N#Cc1cccc(-c2c[nH]c3nncc(N4CCOCC4)c23)c1F` [Example 92, 2-fluoro-3-[4-(morpholin-4-yl)-7H-pyrrolo[2,3-c]pyridazin-5-yl]benzonitrile] it is 43.7 nM. The value for `N#Cc1cccc(-c2c[nH]c3nccc(-c4cccnc4)c23)c1` [Example 93, 3-[4-(pyridin-3-yl)-1H-pyrrolo[2,3-b]pyridin-3-yl]benzonitrile] was 45.6 nM. For `Cn1cc(-c2c[nH]c3nccc(-c4ccc(F)c(F)c4)c23)cn1` [Example 94, 4-(3,4-difluorophenyl)-3-(1-methyl-1H-pyrazol-4-yl)-1H-pyrrolo[2,3-b]pyridine], the EC50 is 45.6 nM. `Cn1cc(-c2c[nH]c3nccc(-c4cc(F)ccc4F)c23)cn1` [Example 95, 4-(2,5-difluorophenyl)-3-(1-methyl-1H-pyrazol-4-yl)-1H-pyrrolo[2,3-b]pyridine]: the EC50 stood at 49.5 nM. The value for `Cn1cc(-c2c[nH]c3nccc(-c4cccc(F)c4F)c23)cn1` [Example 96, 4-(2,3-difluorophenyl)-3-(1-methyl-1H-pyrazol-4-yl)-1H-pyrrolo[2,3-b]pyridine] was 58.9 nM; that for `Cn1cc(-c2c[nH]c3nccc(-c4cccc(Cl)c4)c23)cn1` [Example 97, 4-(3-chlorophenyl)-3-(1-methyl-1H-pyrazol-4-yl)-1H-pyrrolo[2,3-b]pyridine] was 63.1 nM. Regarding `COc1cccc(-c2ccnc3[nH]cc(-c4cnn(C)c4)c23)c1F` [Example 98, 4-(2-fluoro-3-methoxyphenyl)-3-(1-methyl-1H-pyrazol-4-yl)-1H-pyrrolo[2,3-b]pyridine], the EC50 is 85.9 nM. As to `CNS(=O)(=O)c1cccc(-c2ccnc3[nH]cc(-c4cccc(C#N)c4)c23)c1` [Example 99, 3-[3-(3-cyanophenyl)-1H-pyrrolo[2,3-b]pyridin-4-yl]-N-methylbenzenesulfonamide], the EC50 was 92.5 nM. The value for `COc1ccc(F)c(F)c1-c1c[nH]c2ncc(C#N)c(C3CC3)c12` [Example 100, 4-cyclopropyl-3-(2,3-difluoro-6-methoxyphenyl)-1H-pyrrolo[2,3-b]pyridine-5-carbonitrile] was 99.2 nM; that for `Cn1cc(-c2ccnc3[nH]cc(-c4cccc(C#N)c4)c23)cn1` [Example 101, 3-[4-(1-methyl-1H-pyrazol-4-yl)-1H-pyrrolo[2,3-b]pyridin-3-yl]benzonitrile] was 101 nM. Regarding `Cn1cc(-c2c[nH]c3nccc(-c4ccncc4)c23)cn1` [Example 102, 3-(1-methyl-1H-pyrazol-4-yl)-4-(pyridin-4-yl)-1H-pyrrolo[2,3-b]pyridine], the EC50 turned out to be 102 nM.

As for `Cn1cc(-c2c[nH]c3nccc(-c4cc(F)cc(F)c4)c23)cn1` [Example 103, 4-(3,5-difluorophenyl)-3-(1-methyl-1H-pyrazol-4-yl)-1H-pyrrolo[2,3-b]pyridine], the EC50 was determined as 125 nM.

For the compound `COc1ccc(-c2ccnc3[nH]cc(-c4cnn(C)c4)c23)cc1F` [Example 104, 4-(3-fluoro-4-methoxyphenyl)-3-(1-methyl-1H-pyrazol-4-yl)-1H-pyrrolo[2,3-b]pyridine], the EC50 is 138 nM.

Consider `COc1ccc(-c2ccnc3[nH]cc(-c4cnn(C)c4)c23)c(F)c1` [Example 105, 4-(2-fluoro-4-methoxyphenyl)-3-(1-methyl-1H-pyrazol-4-yl)-1H-pyrrolo[2,3-b]pyridine], for which the EC50 came to 143 nM. Consider `Cn1cc(-c2c[nH]c3nccc(-c4ccoc4)c23)cn1` [Example 106, 4-(furan-3-yl)-3-(1-methyl-1H-pyrazol-4-yl)-1H-pyrrolo[2,3-b]pyridine], for which the EC50 was found to be 144 nM. Turning to `Cn1cc(-c2c[nH]c3nccc(-c4ccc5scnc5c4)c23)cn1` [Example 107, 5-[3-(1-methyl-1H-pyrazol-4-yl)-1H-pyrrolo[2,3-b]pyridin-4-yl]-1,3-benzothiazole], the EC50 turned out to be 169 nM.
